Measured values from US8680094B2, “1, 4-benzoxazine compounds and derivatives thereof as therapeutic drugs for the treatment of neurodegenerative conditions” (Board of Regents, The University of Texas System, priority 2008, dated 2014).
Where “and” joins values, the source holds several entries; their conditions need not be identical. Equal entries are not always repeated.

Key:
[1] = system: cerebellar granule neurons; assay: LK-induced death of cultured cerebellar granule neurons, viability by DAPI staining; assay type: cell-based, rat; details: for neuroprotection against LK-induced neuronal death, in words: overall over 1, 5 and 25 μM; for protection at doses lower than 1 μM compared with 1 μM: 0.5, 0.25 and 0.1 μM
Procedure: Culturing and treatments of cerebellar granule neurons: Granule neuron cultures were obtained from dissociated cerebella of 6-7 day old Wistar rats as described previously (D'Mello et al., 1993). Cells were plated in Basal Eagle's Medium (BME) supplemented with 10% fetal calf serum (FCS), 25 mM KCl, 2 mM glutamine (Invitrogen), and 100 μg/ml gentamycin in poly-L-lysine coated 24-well dishes at a density 1×10^6 cells/well. Cytosine arabinofuranoside (10 μM) was added to the culture medium 18-22 h after plating to prevent replication of nonneuronal cells. Previous immunocytochemical analyses by our lab and other investigators have shown that these cultures have high purity containing over 95% granule neurons (Thangnipon et al., 2003; Kingsbury et al., 2005).
The neuronal cultures were maintained for 7-8 days prior to treatment. For treatment, the cells were rinsed once and then maintained in low K+ medium (serum-free BME medium; referred to as LK), or in the case of control cultures, in high K+ medium (serum-free BME medium supplemented with 20 mM KCl; referred to as HK). For treatments, the chemical compounds (dissolved in dimethylsulfoxide) were added directly to LK medium at the time of the switch from HK at concentrations of 1, 5, or 25 μM. Viability was assessed 24 hours by 4′,6′-diamidino-2-phenylindole hydrochloride (DAPI) staining (see below). Each compound was tested in duplicate (at each of the concentrations) and the experiment repeated at least 3 times.
The viability status of neuronal cultures treated with HK, LK, or LK medium supplemented with various compounds was evaluated by phase contrast microscopy and quantified by staining cell nuclei with DAPI as previously described (Yalcin et al., 2003; Morrison et al., 2006; Majzadeh et al., 2007)). Briefly, the cells were fixed in 4% paraformaldehyde for 20 min at 4° C. After washing in phosphate buffered saline, diamidino-2-phenylindole hydrochloride (DAPI; 1 μg/ml in phosphate buffered saline) was added for 15 min at room-temperature and viewed under ultraviolet light (260 nm). Cells with condensed or fragmented nuclei were scored as dead. Viability has been expressed as percent of control cultures, which were switched to HK medium). Statistical analysis was performed using an unpaired, two-tailed Student's T test, compared to mean neuronal survival of control cultures receiving LK treatment.
When cultured cerebellar granule neurons are switched from HK to LK medium about 50% of the cells underwent apoptosis within 24 h (D'Mello et al., 1993). The inventors utilized this widely used and recognized model to test a total of 20 different 1,4-benzoxazine derivatives for their ability to protect against LK-induced neuronal death. Each compound was tested at 3 different doses—1 μM, 5 μM and 25 μM and viability quantified by DAPI-staining. The highest does was included to test for possible toxicity effects of the compounds. Key results were confirmed using TUNEL staining, another reliable assay of apoptosis (FIG. 1). As shown in Table 1 and FIG. 1, the present invention identifies several compounds with significant neuroprotective effect. Two of the most protective compounds are HSB-13 and HSB-22, both with Ar=3′,5′-dibromo-4′-hydroxyphenyl (FIG. 1). […] Protection with this compound is lower than that observed with HSB-13 and HSB-22 at the two lower doses. […] To examine whether a higher level of protection could be observed at doses lower than 1 μM, the analyses of these compounds was extended to doses of 0.5, 0.25, and 0.1 μM.
When cultured cerebellar granule neurons are switched to LK medium, about 50% of the cells undergo apoptosis within 24 h. In this study, a total of 20 different 1,4-benzoxazine derivatives of the structure shown in FIG. 1 were tested for their ability to protect against LK-induced death of cerebellar granule neurons. Each compound was tested at 3 different doses —1 μM, 5 μM and 25 μM. […]

[2] = system: 3-NP-induced mouse model of Huntington's disease; details: earlier work (Chin et al., 2004); cited from earlier work
GSK3β = GSK3β (Homo sapiens, UniProt P49841); details: stated for the reference compound, no value; cited from earlier work
Sequence of GSK3β (P49841 whole entry, species assumed): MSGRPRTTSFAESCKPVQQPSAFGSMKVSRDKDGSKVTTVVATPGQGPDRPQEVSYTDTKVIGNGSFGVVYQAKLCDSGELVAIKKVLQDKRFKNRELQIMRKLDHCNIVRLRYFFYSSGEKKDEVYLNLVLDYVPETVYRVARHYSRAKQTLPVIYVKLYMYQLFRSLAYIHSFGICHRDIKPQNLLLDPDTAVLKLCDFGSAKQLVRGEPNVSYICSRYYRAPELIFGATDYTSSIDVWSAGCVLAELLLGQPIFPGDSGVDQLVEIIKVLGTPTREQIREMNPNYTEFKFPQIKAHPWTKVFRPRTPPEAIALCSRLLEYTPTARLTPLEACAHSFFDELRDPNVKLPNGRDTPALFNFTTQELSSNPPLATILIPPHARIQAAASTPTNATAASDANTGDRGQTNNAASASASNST

cultured neurons = details: Chin et al., 2004, cited from earlier work
[3] = Table 1, 1 μM in LK medium, 24 h, % of survival in control cultures in HK medium, LK alone 48%
[4] = Table 1, 5 μM in LK medium, 24 h, % of survival in control cultures in HK medium, LK alone 48%
[5] = Table 1, 25 μM in LK medium, 24 h, % of survival in control cultures in HK medium, LK alone 48%
[6] = Table 4, 1 μM in LK medium, % of survival in HK control cultures, LK alone 48.16±8.44%
[7] = Table 4, 5 μM in LK medium, % of survival in HK control cultures, LK alone 48.16±8.44%
[8] = Table 4, 25 μM in LK medium, % of survival in HK control cultures, LK alone 48.16±8.44%

SMILES	% Survival [1, 3]	% Survival [1, 4]	% Survival [1, 5]	% Survival [1, 6]	% Survival [1, 7]	% Survival [1, 8]	neuroprotection against LK-induced neuronal death, in words [1]	protection at doses lower than 1 μM compared with 1 μM [1]	behavioral performance in mice administered with 3-nitropropionic acid [2]	striatal degeneration in mice administered with 3-nitropropionic acid [2]	inhibition of GSK3β (GSK3β)	death of cultured neurons induced by a variety of different apoptotic stimuli (cultured neurons)	toxicity to cultured neurons (cultured neurons; at higher concentrations, Johnson et al., 2005, Chen et al., 2008)	% Survival ([1]; Table 4, 25 μM in LK medium, % of survival in HK control cultures, LK alone 48.16±8.44%, listed as HSB-)	protection against LK-induced neuronal death (FIG. 1) ([1]; 25 μM, 24 h, phase contrast microscopy, DAPI-staining, TUNEL-staining)
O=C1Nc2ccccc2O/C1=C\c1cc(Br)cc(Br)c1 [ASK-1]	75.3 ± 10.56%	68.8 ± 12.99%	69.1 ± 7.56%	75.3 ± 10.56%	68.8 ± 12.99%	69.1 ± 7.56%	lack of neuroprotection								
S=C1Nc2ccccc2OC1=Cc1cccs1 [ASK-8]		60.8 ± 2.62%	39.3 ± 7.78%	73.3 ± 0.79 %	60.8 ± 2.62%	39.3 ± 7.78%	inactive	lower							
CN1C(=S)C(=Cc2ccc[nH]2)Oc2ccccc21 [ASK-9]		70.2 ± 5.32%	65.1 ± 5.63%	84.5% and 84.5 ± 3.30 %	70.2 ± 5.32%	65.1 ± 5.63%		lower							
COc1ccc(OC)c(C=C2Oc3ccccc3NC2=S)c1 [ASK-11]	73.8 ± 2.31%	90.7 ± 14.50 %	74.0 ± 3.59%	73.8 ± 2.31%	90.7% and 90.7 ± 14.50 %	74.0 ± 3.59%	significant level of protection								
O=C1Nc2ccc(I)cc2C1=Cc1cc(Br)c(O)c(Br)c1 [GW5074, 5-Iodo-3-[(3′,5′-dibromo-4′-hydroxyphenyl)methylene]-2-indolinone]									improves behavioral performance	prevents striatal degeneration	inhibits GSK3β weakly	completely inhibits	display toxicity		
CC(=O)Oc1c(Br)cc(/C=C2\Oc3ccc([N+](=O)[O-])cc3NC2=O)cc1Br [HSB-1]	58.8 ± 10.31%		63.5 ± 9.34%	58.8 ± 10.31%		63.5 ± 9.34%									
CC(=O)Oc1c(Br)cc(/C=C2\Oc3ccc(Cl)cc3NC2=O)cc1Br [HSB-2]	44.1 ± 23.42%	62.3 ± 15.64%		44.1 ± 23.42%	62.3 ± 15.64%										
CC(=O)Oc1c(Br)cc(/C=C2\Oc3ccc(C)cc3NC2=O)cc1Br [HSB-3]	56.9 ± 11.54%	59.6 ± 11.97%		56.9 ± 11.54%	59.6 ± 11.97%	97.4 ± 12.98 %								~97%	
Cc1ccc2c(c1)NC(=O)/C(=C/c1ccsc1)O2 [HSB-4]		60.3 ± 4.47%	61.0 ± 3.58%	65.0 ± 4.34%	60.3 ± 4.47%	61.0 ± 3.58%	inactive	lower							
CC(=O)Oc1c(Br)cc(/C=C2\Oc3ccc(F)cc3NC2=O)cc1Br [HSB-5]	65.9 ± 5.08%	69.3 ± 9.75%		65.9 ± 5.08%	69.3 ± 9.75%	95.6 ± 0.98 %									protective
COc1cc(/C=C2\Oc3ccc(I)cc3NC2=O)cc(OC)c1OC [HSB-6]	61.9 ± 9.07%	72.1 ± 19.33%	59.4 ± 13.11%	61.9 ± 9.07%	72.1 ± 19.33%	59.4 ± 13.11%	lack of neuroprotection								
Cc1ccc2c(c1)NC(=O)/C(=C/c1ccccn1)O2 [HSB-7]	59.4 ± 13.93%		88.1 ± 2.44 %	59.4 ± 13.93%	59.8 ± 6.40%	88.1 ± 2.44 %									
CN(C)c1ccc(C=C2Oc3ccccc3NC2=O)cc1 [HSB-9]		68.8 ± 13.54%	63.3 ± 1.73%	67.3 ± 16.43%	68.8 ± 13.54%	63.3 ± 1.73%		lower							
O=C1Nc2ccccc2OC1=Cc1cccs1 [HSB-11]	64.2 ± 12.18%	68.8 ± 4.26%	68.8 ± 4.49%	64.2 ± 12.18%	68.8 ± 4.26%	68.8 ± 4.49%	inactive								
O=C1Nc2ccccc2OC1=Cc1ccsc1 [HSB-12]	76.8 ± 5.79 %	76.2 ± 3.42 %	81.4 ± 9.45 %	76.8 ± 5.79 %	76.2 ± 3.42 %	81.4 ± 9.45 %	inactive								
COc1cc(C=C2Oc3ccccc3NC2=O)cc(OC)c1OC [HSB-14]	63.9 ± 2.26%	70.0 ± 1.63%	69.2 ± 5.30%	63.9 ± 2.26%	70.0 ± 1.63%	69.2 ± 5.30%									
COc1cc(/C=C2\Oc3ccc(C)cc3NC2=O)cc(OC)c1OC [HSB-15]	60.7 ± 2.76%	66.5 ± 9.26%	63.9 ± 3.32%	60.7 ± 2.76%	66.5 ± 9.26%	63.9 ± 3.32%									
O=C1Nc2ccccc2OC1=Cc1c[nH]c2ccccc12 [HSB-20]	52.2 ± 10.11%	62.5 ± 3.14%	48.3 ± 12.11%	52.2 ± 10.11%	62.5 ± 3.14%	48.3 ± 12.11%									
